PMC9798632, “Tailor-made alkaliphilic and thermostable fungal laccases for industrial wood processing” (Biotechnology for Biofuels and Bioproducts, 2022)

Tests used:
Assay in all cases: spectrophotometric oxidation at […] nm, hyperbolic fit
Type in all cases: biochemical
[1] = molecular target: T1, RY2 laccase (parent of Li9, Li10, Li11, C-LeB, Mol2, Mol3) (basidiomycete PM1, UniProt Q12571, N284D/F413N/F417I/F475P/F481M, form not given); conditions: 100 mM Tris-HCl pH 8, room temperature
T1 construct: one polypeptide; engineered from 7D5 (PDB 6H5Y, used as model template), which came from DNA shuffling of evolved PM1L and P. cinnabarinus laccases; RY2 residues: D263 (from N263), P454, S207, S291, V413, D457, A461, I468; evolved alpha-factor leader a9H2 as signal peptide; host S. cerevisiae BJ5465, purified by HPLC
T1 sequence (Q12571 entry or part of it N284D/F413N/F417I/F475P/F481M, form open): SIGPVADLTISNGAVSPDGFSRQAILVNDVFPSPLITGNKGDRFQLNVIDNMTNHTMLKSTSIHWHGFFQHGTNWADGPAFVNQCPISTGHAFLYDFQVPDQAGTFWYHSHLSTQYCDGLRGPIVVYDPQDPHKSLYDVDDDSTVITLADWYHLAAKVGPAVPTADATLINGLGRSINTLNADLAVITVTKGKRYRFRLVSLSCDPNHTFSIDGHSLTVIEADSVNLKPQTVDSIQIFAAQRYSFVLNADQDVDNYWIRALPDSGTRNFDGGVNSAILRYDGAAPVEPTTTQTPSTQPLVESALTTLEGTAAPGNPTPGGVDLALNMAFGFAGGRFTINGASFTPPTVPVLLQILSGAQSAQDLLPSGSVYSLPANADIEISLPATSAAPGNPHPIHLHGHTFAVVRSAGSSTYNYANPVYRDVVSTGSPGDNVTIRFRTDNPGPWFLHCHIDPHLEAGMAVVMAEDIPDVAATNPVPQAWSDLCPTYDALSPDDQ

[2] = molecular target: T2, RY2 laccase (parent of Li9, Li10, Li11, C-LeB, Mol2, Mol3) (basidiomycete PM1, UniProt Q12571, N284V/F413N/F417I/V445T/S450T/D462N/F475P/A479L/F481M, form not given); conditions: 100 mM Tris-HCl pH 8, room temperature
T2 construct: one polypeptide; engineered from 7D5 (PDB 6H5Y, used as model template), which came from DNA shuffling of evolved PM1L and P. cinnabarinus laccases; RY2 residues: D263 (from N263), P454, S207, S291, V413, D457, A461, I468; evolved alpha-factor leader a9H2 as signal peptide; host S. cerevisiae BJ5465, purified by HPLC
T2 sequence (Q12571 entry or part of it N284V/F413N/F417I/V445T/S450T/D462N/F475P/A479L/F481M, form open): as the sequence (Q12571 entry or part of it N284D/F413N/F417I/F475P/F481M, form open) above, with D263V, V424T, S429T, D441N, A458L counted along it

[3] = molecular target: T3, RY2 laccase (parent of Li9, Li10, Li11, C-LeB, Mol2, Mol3) (basidiomycete PM1, UniProt Q12571, N284V/F413N/F417I/F475P/F481M, form not given); conditions: 100 mM Tris-HCl pH 8, room temperature
T3 construct: one polypeptide; engineered from 7D5 (PDB 6H5Y, used as model template), which came from DNA shuffling of evolved PM1L and P. cinnabarinus laccases; RY2 residues: D263 (from N263), P454, S207, S291, V413, D457, A461, I468; evolved alpha-factor leader a9H2 as signal peptide; host S. cerevisiae BJ5465, purified by HPLC
T3 sequence (Q12571 entry or part of it N284V/F413N/F417I/F475P/F481M, form open): as the sequence (Q12571 entry or part of it N284D/F413N/F417I/F475P/F481M, form open) above, with D263V counted along it

[4] = molecular target: T4, RY2 laccase (parent of Li9, Li10, Li11, C-LeB, Mol2, Mol3) (basidiomycete PM1, UniProt Q12571, N284V/F413N/F417I/F475P/A479L/F481M, form not given); conditions: 100 mM Tris-HCl pH 8, room temperature
T4 construct: one polypeptide; engineered from 7D5 (PDB 6H5Y, used as model template), which came from DNA shuffling of evolved PM1L and P. cinnabarinus laccases; RY2 residues: D263 (from N263), P454, S207, S291, V413, D457, A461, I468; evolved alpha-factor leader a9H2 as signal peptide; host S. cerevisiae BJ5465, purified by HPLC
T4 sequence (Q12571 entry or part of it N284V/F413N/F417I/F475P/A479L/F481M, form open): as the sequence (Q12571 entry or part of it N284D/F413N/F417I/F475P/F481M, form open) above, with D263V, A458L counted along it

[5] = molecular target: T5, RY2 laccase (parent of Li9, Li10, Li11, C-LeB, Mol2, Mol3) (basidiomycete PM1, UniProt Q12571, N284D/F475P, form not given); conditions: pH 5, room temperature
T5 construct: one polypeptide; engineered from 7D5 (PDB 6H5Y, used as model template), which came from DNA shuffling of evolved PM1L and P. cinnabarinus laccases; RY2 residues: D263 (from N263), P454, S207, S291, V413, D457, A461, I468; evolved alpha-factor leader a9H2 as signal peptide; host S. cerevisiae BJ5465, purified by HPLC
T5 sequence (Q12571 entry or part of it N284D/F475P, form open): as the sequence (Q12571 entry or part of it N284D/F413N/F417I/F475P/F481M, form open) above, with N392F, I396F, M460F counted along it

Km [1]: 20000 ± 2400 µM
Km [2]: 1700 ± 200 µM
Km [3]: 1500 ± 100 µM
Km [4]: 1700 ± 100 µM
Km [5]: 260 ± 40 µM
Compound: COc1cccc(OC)c1O [2,6-dimethoxyphenol]
